One sequence from paper PMC10937676, “Targeting the NTSR2/TrkB oncogenic pathway in chronic lymphocytic leukemia” (Scientific Reports, 2024) can be followed below.

The test system of one test is MEC-1 cell line. The test can be described thus: Cytotoxicity on the MEC-1 cell line (Incucyte, Cytotox Dye). In kind it is cell-based. Conditions: 0 to 100 µM peptide, fluorescence monitored for 24 h, read-out: IC50, cell death. As to the method:
The cytotoxicity of the peptides was initially assessed on the MEC-1 cell line to determine their IC50.
Figure 3 Cytotoxicity of the peptide in vitro and ex vivo. (A) Determination of the cytotoxicity of Pep and TAT-Pep peptides on the MEC-1 cell line. Increased concentrations (0 to 100 µM) of Pep and TAT-Pep were incubated with the MEC-1 cell line, and the number of dead cells was measured using the Incucyte live-cell imaging device with Cytotox Dye (green). Fluorescence was monitored for 24 h. (B) Measurement of the cytotoxicity of the TAT-Pep peptide on CLL-B cells from patients. Increased concentrations (0 to 30 µM) of TAT-Pep were incubated with CLL-B cells, and the number of dead cells was measured using the Incucyte live-cell imaging device with Cytotox Dye (green). Fluorescence was monitored for 48 h. […] In all analyses, the ‘Green Object Count/Phase Object Count’ ratio was determined using the Incucyte analysis software to obtain the percentage of dead cells. The area under the curve for each condition was then calculated, and they were compared using a t-test. […]
Cell viability and survival were monitored using the IncucyteS3 system (Sartorius), a live-cell imaging device enabling the tracking of fluorescence over set periods of time[41],[42]. […] The area under the curve for each condition was then calculated, and they were compared using a t-test. […]

The next test relates to AKT. The test can be described thus: Immunoblot, relative phosphorylation level of AKT in CLL-B cells. Conditions: CLL-B cells from 10 patients, overnight, 10 µM. In kind it is cell-based, human. As to the method:
(§1) Figure 5 The peptide inhibits kinase phosphorylation. CLL-B cells from 10 patients were incubated overnight, with or without 10 µM of TAT-Pep. Whole cell lysates were then prepared, and 10 µg of proteins were immunoblotted to assess the following parameters. (A) Relative phosphorylation level of SRC. (B) Relative phosphorylation level of AKT. (C) Relative phosphorylation level of LYN. (D) Relative phosphorylation level of BTK. (E) Relative phosphorylation level of all tyrosine-phosphorylated proteins.
(§2) Whole cell lysate proteins were extracted using RIPA buffer (Sigma-Aldrich) and sonication (VibraCell™). Plasma membrane proteins were recovered by using the Plasma Membrane Protein Extraction Kit (Abcam) according to the manufacturer’s instructions. A list of the antibodies used for immunoblotting is available in Supplementary Table 2. Bands were quantitatively assessed by densitometry using Fiji software. To evaluate the level of interaction of NTSR2 and TRKB we normalized the density of the TRKB bands by the density of the NTSR2 bands to obtain the relative amount of TRKB co-precipitated through NTSR2.
(Immunoblotting shows a protein as a band on a membrane.)

The next test has as its system BCL-XL mRNA. Put plainly: RTqPCR, mRNA level of BCL-XL in CLL-B cells. In kind it is cell-based, human. Conditions: CLL-B cells from 12 patients, overnight, 10 µM, 18S housekeeping gene. The text has this:
Concerning anti-apoptotic protein expression, a decrease in anti-apoptotic proteins BCL-2; BCL-XL and MCL-1 was observed after TAT-Pep treatment of CLL-B cells, possibly as a consequence of the SRC kinase inactivation (Fig. 6A–C). To unveil whether the regulation mechanism behind the observed modifications was transcriptional or post-transcriptional, we evaluated the mRNA levels of all three anti-apoptotic proteins following peptide treatment. […] To further underline that the induction of cell death following TAT-Pep treatment involved apoptosis regulation pathways, we used B cells from six CLL patients and stained them with Annexin V in both TAT-Pep treated and untreated conditions. […]
Figure 6 The peptide lowers anti-apoptotic proteins levels. […] CLL-B cells from 12 patients were incubated overnight, with or without 10 µM of TAT-Pep, subsequently RNA was extracted from cell lysates and mRNA levels of BCL-2 (D); BCL-XL (E) and MCL-1 (F) were evaluated using RTqPCR; 18S was used as a housekeeping gene. (G) Increased concentrations (0 to 30 µM) of TAT-Pep were incubated with 20,000 CLL-B, and the number of Annexin V-positive cells was measured using the Incucyte live-cell imaging device. Fluorescence was monitored for 48 h. […] The ‘Green Object Count/Phase Object Count’ ratio was determined using the Incucyte analysis software to obtain the percentage of apoptotic cells. […]
In general terms: Real-time PCR tracks product formation cycle by cycle.

In the next test the test system is SRC. The test can be described thus: Immunoblot, relative phosphorylation level of SRC in CLL-B cells. In kind it is cell-based, human. Conditions: CLL-B cells from 10 patients, overnight, 10 µM. Here is the method:
as §1, §2

The IC50 is the concentration needed to halve the response being measured.

Regarding “GRKKRRQRRRPPQNAVSSSFRKLFLEAVSSLCGEHHPMKRLPPKPQSPTLMDTASGFGDPPETRT [TAT-Pep]”, the IC50 in the test with MEC-1 cell line is 10 µM. Besides, the “AKT phosphorylation (in words)” value with AKT was “did not observe any variation”. In addition, in the test on BCL-XL mRNA, the “mRNA level of BCL-XL (in words)” value is “significantly lowered expression”. The “amount of phosphorylated SRC (in words)” value with SRC is recorded as “significant decrease”.
